Target: AKT1 (Homo sapiens, UniProt P31749)
Experiment: HTS off-chip mobility-shift assay, typical screen parameters for AKT1
Format: biochemical
Details: read-out: inhibition (control inhibitor)
Text: The following procedures describe the reagent and plate preparation for a HTS of an ATP-utilizing enzyme, such as a protein kinase, run in an off-chip mobility-shift assay format. The following provides an HTS protocol for running a protein kinase HTS screen on a Caliper HTS 250 microfluidics system. The following parameters are dependent on the protein kinase used and can be determined by one skilled in the art as part of a typical assay development process. For example, the peptide substrate used can be identified from the current literature, by screening a peptide library of potential protein kinase substrates, or by other applicable means accepted in the field.
The following table provides typical screen assay parameters appropriate for a Caliper HTS 250 microfluidics system used to assay AKT1. Parameters used to assay other protein kinases can be determined by one skilled in the art. […]
Assays to determine the kinase inhibitory activity of compounds of the present disclosure were performed using a Caliper HTS 250 microfluidics device, Greiner U-bottom assay plates, a Multidrop for transfer of reagents, and Biomek FX (AMNCBM03) software. […] The inhibition of the ATP-utilizing enzyme, such as a particular protein kinase, was determined by measuring the ratio of the peptide substrate to phosphorylated product for each well of the assay plate using the Caliper HTS 250 system.

Chain of AKT1 (P31749 whole entry): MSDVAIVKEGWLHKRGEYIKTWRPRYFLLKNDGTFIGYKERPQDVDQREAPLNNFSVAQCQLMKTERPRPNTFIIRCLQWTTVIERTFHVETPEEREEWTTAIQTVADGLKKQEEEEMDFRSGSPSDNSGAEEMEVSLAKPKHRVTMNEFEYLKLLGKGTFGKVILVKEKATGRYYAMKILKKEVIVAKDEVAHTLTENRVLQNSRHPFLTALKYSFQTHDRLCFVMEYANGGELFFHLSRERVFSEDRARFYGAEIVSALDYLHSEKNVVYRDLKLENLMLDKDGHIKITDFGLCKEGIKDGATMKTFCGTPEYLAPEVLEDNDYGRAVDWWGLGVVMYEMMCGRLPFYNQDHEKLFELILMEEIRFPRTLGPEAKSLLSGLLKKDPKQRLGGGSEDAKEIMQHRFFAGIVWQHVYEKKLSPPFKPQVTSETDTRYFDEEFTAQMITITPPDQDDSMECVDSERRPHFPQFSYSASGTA

inhibition at 20000 µM (inhibitor concentration 20 mM, AKT1 screen) [%] | SMILES | inhibition at 0.138 µM [%]
– | CN[C@@H]1C[C@H]2O[C@@](C)([C@@H]1OC)n1c3ccccc3c3c4c(c5c6ccccc6n2c5c31)C(=O)NC4 [Staurosporine] | 70
100 | O=C(O)CN(CCN(CC(=O)O)CC(=O)O)CC(=O)O [EDTA, ethylenediaminetetraacetic acid] | –
